Data published in patent publication US20030129629A1, “Methods and compositions for the identification, assessment, prevention, and therapy of human cancers” (Millennium Pharmaceuticals, Inc., priority 2000, published 2003).
Structures can show the parent of a compound that is named as a salt.

Test system: 60 cancer cell lines (NCI 60 cancer cell line series)
Assay: NCI-DTP in vitro cancer screen, sulforhodamine B (SRB) growth inhibition, 48 hour exposure
Assay type: cell-based, human
Summary of the method: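 Potency is given as mean −log{GI50} from dose–response curves, manually binned into Low, Medium or High sensitivity. Sixty NCI-DTP tumour lines were treated 48 h with a duplicate, five-dose, ten-fold dilution series, and growth read by SRB staining of cell mass.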

`CC[C@]1(O)C[C@@H]2CN(CCc3c([nH]c4ccccc34)[C@@](C(=O)OC)(c3cc4c(cc3OC)N(C)[C@H]3[C@@](O)(C(=O)OC)[C@H](OC(C)=O)[C@]5(CC)C=CCN6CC[C@]43[C@@H]65)C2)C1` [Vinblastine sulfate] was tested, and the “classification of cell line as Low(1), Medium(2), High(3) sensitivity to compound” value (“classification of cell line” below) (Breast HS-578T CL5006) was 3, the “classification of cell line” value (Breast MCF7/ADRr CL5002) was 1 and the “classification of cell line” value (Breast MDA-MB-231 CL5005) was 2. The “classification of cell line” value (Breast MDA-MB-435 CL5011) was 3, the “classification of cell line” value (Breast MDA-N CL5012) was 3 and the “classification of cell line” value (CNS SF-268 CL12014) was 2. For the same compound, the “classification of cell line” value (CNS SF-295 CL12015) was 2, the “classification of cell line” value (CNS SF-539 CL12016) was 2 and the “classification of cell line” value (CNS SNB-19 CL12002) was 2. The “classification of cell line” value (CNS U251(I) CL12009) was 2, the “classification of cell line” value (Colon HCC-2998 CL4002) was 2 and the “classification of cell line” value (Colon HCT-15 CL4015) was 1. For the same compound, the “classification of cell line” value (Colon KM12 CL4017) was 2, the “classification of cell line” value (Colon SW-620 CL4009) was 2 and the “classification of cell line” value (Leukemia CCRF-CEM(I) CL7003) was 2. For the same compound, the “classification of cell line” value (Leukemia HL-60(I) CL7008) was 3, the “classification of cell line” value (Leukemia MOLT-4 CL7006) was 2 and the “classification of cell line” value (Melanoma M14 CL10014) was 2. The “classification of cell line” value (Melanoma MALME-3M CL10002) was 2, the “classification of cell line” value (Melanoma SK-MEL-2 CL10005) was 2 and the “classification of cell line” value (Melanoma SK-MEL-5 CL10007) was 3. The “classification of cell line” value (Melanoma SK-MEL-28 CL10008) was 2, the “classification of cell line” value (Melanoma UACC-62 CL10020) was 3 and the “classification of cell line” value (NSCLC A549/ATCC CL1004) was 2. For the same compound, the “classification of cell line” value (NSCLC EKVX CL1008) was 1, the “classification of cell line” value (NSCLC HOP-62 CL1026) was 2 and the “classification of cell line” value (NSCLC HOP-92 CL1029) was 2. For the same compound, the “sensitivity classification Low(1)/Medium(2)/High(3)” value (NSCLC NCI-H23(I) CL1001) was 2, the “classification of cell line” value (NSCLC NCI-H226 CL1013) was 2 and the “sensitivity classification Low(1)/Medium(2)/High(3)” value (NSCLC NCI-H332M CL1017) was 2. The “sensitivity classification Low(1)/Medium(2)/High(3)” value (NSCLC NCI-H460 CL1021) was 2, the “sensitivity classification Low(1)/Medium(2)/High(3)” value (NSCLC NCI-H522 CL1003) was 3 and the “sensitivity classification Low(1)/Medium(2)/High(3)” value (Ovarian IGROV1 CL6010) was 2. The “sensitivity classification Low(1)/Medium(2)/High(3)” value (Ovarian OVCAR-3 CL6001) was 3, the “sensitivity classification Low(1)/Medium(2)/High(3)” value (Ovarian OVCAR-8 CL6005) was 2 and the “sensitivity classification Low(1)/Medium(2)/High(3)” value (Ovarian SK-OV-3 CL6011) was 2. The “sensitivity classification Low(1)/Medium(2)/High(3)” value (Renal 786-0 CL9018) was 2, the “sensitivity classification Low(1)/Medium(2)/High(3)” value (Renal CAKI-1 CL9015) was 2 and the “sensitivity classification Low(1)/Medium(2)/High(3)” value (Renal RXF-393 CL9016) was 2. The “sensitivity classification Low(1)/Medium(2)/High(3)” value (Renal SN12C CL9008) was 2, the “sensitivity classification Low(1)/Medium(2)/High(3)” value (Renal TK10 CL9024) was 1 and the “sensitivity classification Low(1)/Medium(2)/High(3)” value (Renal UO-31 CL9004) was 1.
In the case of `CC[C@]1(O)C[C@H]2CN(CCc3c([nH]c4ccccc34)[C@@](C(=O)OC)(c3cc4c(cc3OC)N(C=O)[C@H]3[C@@](O)(C(=O)OC)[C@H](OC(C)=O)[C@]5(CC)C=CCN6CC[C@]43[C@@H]65)C2)C1` [Vincristine sulfate], the “classification of cell line” value (Breast BT-549 CL5013) is reported as 1, the “classification of cell line” value (Breast HS-578T CL5006) is reported as 2 and the “classification of cell line” value (Breast MCF7(I) CL5001) is reported as 2. The “classification of cell line” value (Breast MCF7/ADRr CL5002) was 2, the “classification of cell line” value (Breast MDA-MB-231 CL5005) was 2 and the “classification of cell line” value (Breast MDA-MB-435 CL5011) was 2. For the same compound, the “classification of cell line” value (Breast MDA-N CL5012) was 2, the “classification of cell line” value (Breast T-47D CL5014) was 1 and the “classification of cell line” value (CNS SF-268 CL12014) was 2. The “classification of cell line” value (CNS SF-295 CL12015) was 3, the “classification of cell line” value (CNS SF-539 CL12016) was 3 and the “classification of cell line” value (CNS SNB-19 CL12002) was 2. The “classification of cell line” value (CNS SNB-75(I) CL12005) was 2, the “classification of cell line” value (CNS U251(I) CL12009) was 2 and the “classification of cell line” value (Colon COLO-250 CL4010) was 2. For the same compound, the “classification of cell line” value (Colon HCC-2998 CL4002) was 2, the “classification of cell line” value (Colon HCT-15 CL4015) was 2 and the “classification of cell line” value (Colon HCT-116 CL4003) was 2. For the same compound, the “classification of cell line” value (Colon HT29(I) CL4001) was 3, the “classification of cell line” value (Colon KM12 CL4017) was 3 and the “classification of cell line” value (Colon SW-620 CL4009) was 3. For the same compound, the “classification of cell line” value (Leukemia CCRF-CEM(I) CL7003) was 3, the “classification of cell line” value (Leukemia HL-60(I) CL7008) was 3 and the “classification of cell line” value (Leukemia K562(I) CL7005) was 3. The “classification of cell line” value (Leukemia MOLT-4 CL7006) was 3, the “classification of cell line” value (Leukemia RPMI-8226(I) CL7010) was 3 and the “classification of cell line” value (Leukemia SR CL7019) was 3. The “classification of cell line” value (Melanoma LOX IMVI CL10001) was 3, the “classification of cell line” value (Melanoma M14 CL10014) was 2 and the “classification of cell line” value (Melanoma MALME-3M CL10002) was 2. The “classification of cell line” value (Melanoma SK-MEL-2 CL10005) was 2, the “classification of cell line” value (Melanoma SK-MEL-5 CL10007) was 3 and the “classification of cell line” value (Melanoma SK-MEL-28 CL10008) was 1. For the same compound, the “classification of cell line” value (Melanoma UACC-62 CL10020) was 2, the “classification of cell line” value (Melanoma UACC-257 CL10021) was 2 and the “classification of cell line” value (NSCLC A549/ATCC CL1004) was 2. For the same compound, the “classification of cell line” value (NSCLC EKVX CL1008) was 1, the “classification of cell line” value (NSCLC HOP-62 CL1026) was 2 and the “classification of cell line” value (NSCLC HOP-92 CL1029) was 2. The “sensitivity classification Low(1)/Medium(2)/High(3)” value (NSCLC NCI-H23(I) CL1001) was 3, the “classification of cell line” value (NSCLC NCI-H226 CL1013) was 2 and the “sensitivity classification Low(1)/Medium(2)/High(3)” value (NSCLC NCI-H332M CL1017) was 2. For the same compound, the “sensitivity classification Low(1)/Medium(2)/High(3)” value (NSCLC NCI-H460 CL1021) was 3, the “sensitivity classification Low(1)/Medium(2)/High(3)” value (NSCLC NCI-H522 CL1003) was 3 and the “sensitivity classification Low(1)/Medium(2)/High(3)” value (Ovarian IGROV1 CL6010) was 3. The “sensitivity classification Low(1)/Medium(2)/High(3)” value (Ovarian OVCAR-3 CL6001) was 3, the “sensitivity classification Low(1)/Medium(2)/High(3)” value (Ovarian OVCAR-4 CL6002) was 2 and the “sensitivity classification Low(1)/Medium(2)/High(3)” value (Ovarian OVCAR-5 CL6003) was 1. The “sensitivity classification Low(1)/Medium(2)/High(3)” value (Ovarian OVCAR-8 CL6005) was 3, the “sensitivity classification Low(1)/Medium(2)/High(3)” value (Ovarian SK-OV-3 CL6011) was 2 and the “sensitivity classification Low(1)/Medium(2)/High(3)” value (Prostate DU-145 CL11003) was 2. For the same compound, the “sensitivity classification Low(1)/Medium(2)/High(3)” value (Prostate PC-3(I) CL11001) was 2, the “sensitivity classification Low(1)/Medium(2)/High(3)” value (Renal 786-0 CL9018) was 2 and the “sensitivity classification Low(1)/Medium(2)/High(3)” value (Renal A498 CL9013) was 3. The “sensitivity classification Low(1)/Medium(2)/High(3)” value (Renal ACHN CL9023) was 2, the “sensitivity classification Low(1)/Medium(2)/High(3)” value (Renal CAKI-1 CL9015) was 2 and the “sensitivity classification Low(1)/Medium(2)/High(3)” value (Renal RXF-393 CL9016) was 2. The “sensitivity classification Low(1)/Medium(2)/High(3)” value (Renal SN12C CL9008) was 2, the “sensitivity classification Low(1)/Medium(2)/High(3)” value (Renal TK10 CL9024) was 1 and the “sensitivity classification Low(1)/Medium(2)/High(3)” value (Renal UO-31 CL9004) was 1.
